Experiments:
[1] = molecular target: human recombinant IRAK4 protein (Homo sapiens (Human), UniProt Q9NWZ3); test: IRAK4 enzyme assay (mass spectrometry readout); assay type: biochemical; conditions: 3 mM ATP, 0.2 nM enzyme; geometric mean of at least n=2, * single experiment
Procedure: Potency of IRAK4 Inhibitor Compounds in IRAK4 Enzyme Assay
The inhibitory activity of compounds against IRAK4 were determined in an enzymatic assay using mass spectrometry readout. Ten point half-log compound concentration response curves, with a top concentration of 1 μM or 10 μM, were generated from 10 mM stocks of compound solubilized in DMSO using an Echo 655 (Labcyte Inc) and added to 384 well assay plates (Greiner #781280). To the assay plates, 10 μL of human recombinant IRAK4 protein (Life Technologies #PV4002) diluted to a final concentration of 0.2 nM in assay buffer (50 mM Tris-HCl pH 7.4, 10 mM MgCl, 5 mM glutathione, 0.01% BSA, 3 mM ATP) was added. The enzyme was incubated with the compounds at room temperature for 15 minutes before a peptide substrate ([…], Innovagen custom synthesis, 10 mM in DMSO) was added to each well to a final concentration of 10 μM using an Echo 655 (Labcyte Inc). After two hours at room temperature, the reaction was stopped with 90 μL of 0.4% formic acid (Merck #33015). The unphosphorylated and phosphorylated peptide were measured by LC-MS/MS on a Waters TQ-S mass spectrometer. Peaks were integrated using the TargetLynx software and the ratios between phosphorylated and unphosphorylated peptides were calculated. Curves were fitted and compound potencies determined in Genedata Screener 15 (Genedata AG). Data presented are the geometric mean of at least n=2, or as denoted by an * are obtained from a single experiment.

[2] = molecular target: IRAK4 auto-phosphorylation (Homo sapiens (Human), UniProt Q9NWZ3); test: IRAK4 phosphorylation cell assay in IL-1β-stimulated Karpas-299 cells; assay type: cell-based; conditions: IL-1β 22.7 ng/mL, pIRAK4 (Thr345/Ser346), geometric mean of at least 2 experiments
IRAK4 auto-phosphorylation, sequence (Q9NWZ3 whole entry): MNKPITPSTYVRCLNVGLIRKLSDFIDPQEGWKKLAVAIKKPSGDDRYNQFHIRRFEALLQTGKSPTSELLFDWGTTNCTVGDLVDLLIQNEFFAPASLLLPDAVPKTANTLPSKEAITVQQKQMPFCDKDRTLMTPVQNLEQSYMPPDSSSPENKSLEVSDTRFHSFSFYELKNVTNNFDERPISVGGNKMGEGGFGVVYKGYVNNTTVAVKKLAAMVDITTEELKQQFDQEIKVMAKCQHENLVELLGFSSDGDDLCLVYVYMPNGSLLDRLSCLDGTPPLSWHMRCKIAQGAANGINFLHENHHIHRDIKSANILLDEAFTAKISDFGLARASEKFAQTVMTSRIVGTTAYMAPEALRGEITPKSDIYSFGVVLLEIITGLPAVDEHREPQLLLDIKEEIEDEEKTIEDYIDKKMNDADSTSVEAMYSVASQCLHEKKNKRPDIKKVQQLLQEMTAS
Procedure: IRAK4 Phosphorylation Cell Assay
The activation of IRAK4 by TLR or IL-1R ligands leads to IRAK4 auto-phosphorylation, which can be prevented by IRAK4 kinase inhibitors. The effect of IRAK4 inhibitor compounds on IRAK4 auto-phosphorylation was assessed in IL-1β-stimulated Karpas-299 cells as a measurement of cellular potency. Karpas-299 cells were cultured in RPMI 1640 (Gibco 61870-010) containing 10% FBS (Gibco #10270). Cells were plated at 2×10^4 cells per well in poly-D-lysine coated 384 well plates (Corning #356663) to which compounds had been added at various concentrations (10 point half log dose response with a final top concentration of 30 μM) using an Echo 655 (Labcyte Inc). Cells were centrifuged (250 g, 4 mins), incubated at 37° C. for 1 h, then stimulated with 22.7 ng/mL recombinant IL-1β (R&D Systems, #201-LB-025) at 37° C. for 10 mins, followed by fixation in 4% paraformaldehyde for 10 mins and permeabilization in ice-cold 70% MeOH for 30 mins. Cells were washed twice with phosphate-buffered saline (PBS) on a BlueWasher (BlueCatBio) then blocked with PBS containing 10% FBS for 20 mins. Blocking solution was removed with a BlueWasher and cells were stained with anti-pIRAK4 (Thr345/Ser346) (CST, #11927, 1:400) in blocking buffer with 0.05% Tween-20 for 1 h, then washed twice with PBS containing 0.05% Tween-20 on a BlueWasher, followed by staining with a Alexa 647-conjugated secondary anti-rabbit IgG antibody (CST, #4414, 1:2,000) and Hoechst 33342 (Sigma, 1:2,000) in blocking buffer with 0.05% Tween-20 for 30 mins. Finally, the cells were washed twice with PBS containing 0.05% Tween-20 and imaged on an ImageXpress Micro (Molecular Devices) with a 10× air objective using the appropriate filters. Images were analysed in Columbus (PerkinElmer) and the fluorescence intensity per cell from the secondary antibody was quantified. The quantified data were analysed in Genedata Screener 15 (Genedata AG). […] IC50 values are the geometric mean of at least 2 experiments.

human recombinant IRAK4 protein, sequence (Q9NWZ3 whole entry): as above

Molecule | IC50 [1] [nM] | IC50 [2] [nM]
6-Cyclopropoxy-2-((1s,4s)-4-(N-methylacetamido)cyclohexyl)-N-(pyrazolo[1,5-a]pyrimidin-3-yl)-2H-indazole-5-carboxamide [Example 32] | 10.6 | 257
COc1cc2nn([C@H]3CC[C@@H](O)C[C@@H]3C)cc2cc1C(=O)Nc1cnn2cccnc12 (relative stereo) [Example 40] | – | 158
COc1cc2nn([C@H]3CC[C@@H](O)C[C@@H]3C)cc2cc1C(=O)Nc1cnn2cccnc12 (relative stereo) [Example 41] | 14.3 | 331
C[C@H]1C[C@H](O)CC[C@@H]1n1cc2cc(C(=O)Nc3cnn4cccnc34)c(OC3CC3)cc2n1 (relative stereo) [Example 42, rel-6-Cyclopropoxy-2-(1S,2S,4R)-4-hydroxy-2-methylcyclohexyl)-N-(pyrazolo[1,5-a]pyrimidin-3-yl)-2H-indazole-5-carboxamide] | – | 89
C[C@H]1C[C@H](O)CC[C@@H]1n1cc2cc(C(=O)Nc3cnn4cccnc34)c(OC3CC3)cc2n1 (relative stereo) [Example 43, rel-6-Cyclopropoxy-2-(1S,2S,4R)-4-hydroxy-2-methylcyclohexyl)-N-(pyrazolo[1,5-a]pyrimidin-3-yl)-2H-indazole-5-carboxamide] | 1.8 | 101
C[C@@]1(O)CCC[C@H](n2cc3cc(C(=O)Nc4cnn5cccnc45)c(OC4CC4)cc3n2)C1 (relative stereo) [Example 54, rel-6-cyclopropoxy-2-(1S,3R)-3-hydroxy-3-methylcyclohexyl)-N-(pyrazolo[1,5-a]pyrimidin-3-yl)-2H-indazole-5-carboxamide] | – | 25
C[C@@]1(O)CCC[C@H](n2cc3cc(C(=O)Nc4cnn5cccnc45)c(OC4CC4)cc3n2)C1 (relative stereo) [Example 55, rel-6-cyclopropoxy-2-(1S,3R)-3-hydroxy-3-methylcyclohexyl)-N-(pyrazolo[1,5-a]pyrimidin-3-yl)-2H-indazole-5-carboxamide] | 0.7 | 51
COc1cc2nn([C@@H]3CC[C@]4(CC(=O)N(C)C4)C[C@H]3C)cc2cc1C(=O)Nc1cnc2cccnn12 (relative stereo) [Example 70, rel-2-(5R,7R,8R)-2,7-Dimethyl-3-oxo-2-azaspiro[4.5]decan-8-yl)-N-(imidazo[1,2-b]pyridazin-3-yl)-6-methoxy-2H-indazole-5-carboxamide or rel-2-(5R,7S,8S)-2,7-Dimethyl-3-oxo-2-azaspiro[4.5]decan-8-yl)-N-(imidazo[1,2-b]pyridazin-3-yl)-6-methoxy-2H-indazole-5-carboxamide] | 0.4 | 9
COc1cc2nn([C@@H]3CC[C@]4(CC(=O)N(C)C4)C[C@H]3C)cc2cc1C(=O)Nc1cnc2cccnn12 (relative stereo) [Example 71, rel-2-(5R,7R,8R)-2,7-Dimethyl-3-oxo-2-azaspiro[4.5]decan-8-yl)-N-(imidazo[1,2-b]pyridazin-3-yl)-6-methoxy-2H-indazole-5-carboxamide or rel-2-(5R,7S,8S)-2,7-Dimethyl-3-oxo-2-azaspiro[4.5]decan-8-yl)-N-(imidazo[1,2-b]pyridazin-3-yl)-6-methoxy-2H-indazole-5-carboxamide] | 1.9 | 30
COc1cc2nn([C@@H]3CC[C@]4(CC(=O)N(C)C4)C[C@H]3C)cc2cc1C(=O)Nc1cnc2cccnn12 (relative stereo) [Example 72, rel-2-(5R,7R,8R)-2,7-Dimethyl-3-oxo-2-azaspiro[4.5]decan-8-yl)-N-(imidazo[1,2-b]pyridazin-3-yl)-6-methoxy-2H-indazole-5-carboxamide or rel-2-(5R,7S,8S)-2,7-Dimethyl-3-oxo-2-azaspiro[4.5]decan-8-yl)-N-(imidazo[1,2-b]pyridazin-3-yl)-6-methoxy-2H-indazole-5-carboxamide] | 0.4 | 7
COc1cc2nn([C@@H]3CC[C@]4(CC(=O)N(C)C4)C[C@H]3C)cc2cc1C(=O)Nc1cnc2cccnn12 (relative stereo) [Example 73, rel-2-(5R,7R,8R)-2,7-Dimethyl-3-oxo-2-azaspiro[4.5]decan-8-yl)-N-(imidazo[1,2-b]pyridazin-3-yl)-6-methoxy-2H-indazole-5-carboxamide or rel-2-(5R,7S,8S)-2,7-Dimethyl-3-oxo-2-azaspiro[4.5]decan-8-yl)-N-(imidazo[1,2-b]pyridazin-3-yl)-6-methoxy-2H-indazole-5-carboxamide] | 3.2 | 57
COc1cc2nn([C@H]3CCC[C@H](O)[C@@H]3C)cc2cc1C(=O)Nc1cnc2cccnn12 (relative stereo) [Example 106, rel-2-(1S,2R,3S)-3-Hydroxy-2-methylcyclohexyl)-N-(imidazo[1,2-b]pyridazin-3-yl)-6-methoxy-2H-indazole-5-carboxamide] | – | 15
COc1cc2nn([C@H]3CCC[C@H](O)[C@@H]3C)cc2cc1C(=O)Nc1cnc2cccnn12 (relative stereo) [Example 107, rel-2-(1S,2R,3S)-3-Hydroxy-2-methylcyclohexyl)-N-(imidazo[1,2-b]pyridazin-3-yl)-6-methoxy-2H-indazole-5-carboxamide] | 0.9 | 24
COc1cc2nn([C@H]3CC[C@H](N(C)C(=O)[C@@H]4CC[C@@H](O)C4)CC3)cc2cc1C(=O)Nc1cnn2cccnc12 (relative stereo) [Example 112] | 0.7 | 21
COc1cc2nn([C@H]3CC[C@H](N(C)C(=O)[C@@H]4CC[C@@H](O)C4)CC3)cc2cc1C(=O)Nc1cnn2cccnc12 (relative stereo) [Example 113] | 0.7 | 23
COc1cc2nn([C@H]3CC[C@H](N(C)C(=O)[C@@H]4CC[C@H](O)C4)CC3)cc2cc1C(=O)Nc1cnn2cccnc12 (relative stereo) [Example 114] | 0.7 | 16
COc1cc2nn([C@H]3CC[C@H](N(C)C(=O)[C@@H]4CC[C@H](O)C4)CC3)cc2cc1C(=O)Nc1cnn2cccnc12 (relative stereo) [Example 115] | – | 20
COc1cc2nn([C@@H]3CC[C@]4(CCC(=O)N4C)C[C@H]3C)cc2cc1C(=O)Nc1cnc2cccnn12 (relative stereo) [Example 123, rel-2-(5S,7R,8R)-1,7-Dimethyl-2-oxo-1-azaspiro[4.5]decan-8-yl)-N-(imidazo[1,2-b]pyridazin-3-yl)-6-methoxy-2H-indazole-5-carboxamide] | 3 | –
COc1cc2nn(C3CCC4(CC3)CC(C)(O)C4)cc2cc1C(=O)Nc1cnc2cccnn12 (single isomer, unassigned) [Example 6, 2-(2-Hydroxy-2-methylspiro[3.5]nonan-7-yl)-N-(imidazo[1,2-b]pyridazin-3-yl)-6-methoxy-2H-indazole-5-carboxamide] | 0.7 | 44
COc1cc2nn([C@H]3CCC[C@@H](O)C3)cc2cc1C(=O)Nc1cnc2cccnn12 (single isomer, unassigned) [Example 9] | 1.6 | 57
COc1cc2nn([C@@H]3CC[C@H](O)[C@H](C)C3)cc2cc1C(=O)Nc1cnc2cccnn12 (single isomer, unassigned) [Example 76] | 2.3 | –
COc1cc2nn([C@H]3CC[C@H](N(C)C(=O)[C@H](C)O)CC3)cc2cc1C(=O)Nc1cnc2cccnn12 [Example 94, 2-((1S,4r)-4-((S)-2-Hydroxy-N-methylpropanamido)cyclohexyl)-N-(imidazo[1,2-b]pyridazin-3-yl)-6-methoxy-2H-indazole-5-carboxamide] | – | 10

Source: patent publication US11866405B2, “Substituted indazoles as IRAK4 inhibitors” (AstraZeneca AB, priority 2020, dated 2024)
